Patent US20260158011A1 (Achieve Life Sciences, Inc., priority 2023, published 2026)
Read-outs that look alike come from different tables or passages of the source.

Tested on: adult daily cigarette smokers
[1] = drug reduction Day 35, first Insomnia listing, pooled blinded
[2] = drug reduction Day 35, pooled blinded
[3] = drug reduction Day 35, second Insomnia listing, pooled blinded
[4] = drug reduction Day 42, pooled blinded
[5] = drug reduction Day 49, pooled blinded
[6] = drug reduction Day 55, pooled blinded
[7] = drug reduction Day 58, pooled blinded
[8] = drug reduction Day 63, pooled blinded
[9] = follow up period, start day 86, resolution day 87, pooled blinded
[10] = follow up period, start day 87, resolution day 90, pooled blinded
[11] = follow up period, start day 87, resolution day 96, pooled blinded
[12] = follow up period, start day 102, resolution day 105, pooled blinded
[13] = follow up period, start day 104, resolution day 105, pooled blinded
[14] = follow up period, start day 107, resolution day 111, pooled blinded
[15] = follow up period, start day 112, resolution day 113, pooled blinded
[16] = follow up period, start day 115, resolution day 120, pooled blinded
[17] = follow up period, start day 119, resolution day 139, pooled blinded
[18] = follow up period, start day 146, no resolution day, pooled blinded
[19] = follow up period, start day 148, resolution day 152, pooled blinded
[20] = follow up period, start day 151, resolution day 161, pooled blinded
[21] = follow up period, start day 161, resolution day 161, pooled blinded
[22] = follow up period, start day 180, no resolution day, pooled blinded

Description: Subjects are randomized to one of the three arms A, B, or C. In Arm A, subjects are treated with a placebo for 12 weeks plus behavioral support. In Arm B, subjects are treated with 3.0 mg cytisinicline TID for 6 weeks followed by a placebo for 6 weeks plus behavioral support. In Arm C, subjects are treated with 3.0 mg cytisinicline TID for 12 weeks plus behavioral support.
The safety objectives of the study will be the following: • To evaluate the safety profile of 3.0 mg TID cytisinicline compared to placebo (e.g., Arm B versus Arm A and Arm C versus Arm A); • To compare the safety profiles of Arm B subjects versus Arm C subjects with respect to adverse events occurring after Week 6 on the study.
The population for this study will be male or female adults who are daily cigarette smokers, intending to quit smoking, and are willing to set a quit date that is within 5 to 7 days of the start of treatment. Study treatment will start the day after randomization.
Safety assessments at clinic visits will occur on Day 2 and Day 7 during Week 1 and then weekly throughout the Treatment Period. Laboratory hematology and chemistry assessments will be made on Day 7, Week 6, and Week 12 (End of Treatment “EOT”) during the Treatment Period. Any ongoing adverse events at Week 12 will be followed until resolved or determined to be chronic. The end of study is defined as the last follow-up visit (up to the Week 24 visit) for the last subject.
The Treatment Period will begin on the day after randomization. Study treatment will be blinded, and subjects will take one study tablet three times during the day, approximately 5 hours apart. Subjects randomly assigned to Arm A will take one placebo tablet at each dosing per day for 12 weeks. Arm B subjects will take one cytisinicline tablet at each dosing per day for the first 6 weeks followed by one placebo tablet at each dosing per day for the last 6 weeks. Arm C subjects will take one cytisinicline tablet at each dosing per day for 12 weeks.
Laboratory (hematology and chemistry) evaluations will be performed at the Week 1, Week 6, and Week 12 clinic visits using a central laboratory.
Safety will be assessed by consideration of all adverse events reported by or elicited from the subject and abnormalities detected on hematology and serum chemistry tests. Worsening of other pre-existing medical conditions and any changes to concomitant medications/treatments will also be taken into account in this evaluation.
Routine laboratory safety samples will be analyzed at screening and at clinic visits as identified in Table 15 for each subject by a central laboratory. […] Clinically significant abnormalities occurring during the study will be recorded on the AE page. The reference ranges for laboratory parameters will also be entered in the database and filed in the Investigator site file.
Safety assessments will include reported adverse events, laboratory test results, and vital signs. Safety variables will be summarized for the Safety Analysis Set (SAS), defined as all randomized subjects who take at least one dose of study drug.
Adverse events (AEs) will be coded using the MedDRA dictionary. Coding will include system organ class (SOC) and preferred term (PT). All verbatim descriptions and coded terms will be listed for all AEs.

Structure (SMILES): O=c1cccc2n1C[C@@H]1CNC[C@H]2C1 [cytisine, (−)-Cytisine]
- Dose reduction for Insomnia: Outcome [1]: Recovered/Resolved
- Dose reduction for Insomnia: Relatedness [1]: Probable
- Dose reduction for Insomnia: Severity [1]: Moderate
- Dose reduction for Burning Eyes: Outcome [2]: Recovered/Resolved
- Dose reduction for Burning Eyes: Relatedness [2]: Possible
- Dose reduction for Burning Eyes: Severity [2]: Moderate
- Dose reduction for Headache: Outcome [2]: Recovered/Resolved
- Dose reduction for Headache: Relatedness [2]: Possible
- Dose reduction for Headache: Severity [2]: Moderate
- Dose reduction for Nausea: Outcome [2]: Recovered/Resolved
- Dose reduction for Nausea: Relatedness [2]: Possible
- Dose reduction for Nausea: Severity [2]: Moderate
- Dose reduction for Sinus Congestion: Outcome [2]: Recovered/Resolved
- Dose reduction for Sinus Congestion: Relatedness [2]: Possible
- Dose reduction for Sinus Congestion: Severity [2]: Moderate
- Dose reduction for Sinus Pressure: Outcome [2]: Recovered/Resolved
- Dose reduction for Sinus Pressure: Relatedness [2]: Possible
- Dose reduction for Sinus Pressure: Severity [2]: Moderate
- Dose reduction for Insomnia: Outcome [3]: Recovered/Resolved
- Dose reduction for Insomnia: Relatedness [3]: Possible
- Dose reduction for Insomnia: Severity [3]: Moderate
- Dose reduction for Difficulty Falling Asleep: Outcome [4]: Recovered/Resolved
- Dose reduction for Difficulty Falling Asleep: Relatedness [4]: Possible
- Dose reduction for Difficulty Falling Asleep: Severity [4]: Moderate
- Dose reduction for Restless Leg Syndrome: Outcome [5]: Recovered/Resolved
- Dose reduction for Restless Leg Syndrome: Relatedness [5]: Possible
- Dose reduction for Restless Leg Syndrome: Severity [5]: Moderate
- Dose reduction for Memory Loss: Outcome [6]: Recovered/Resolved
- Dose reduction for Memory Loss: Relatedness [6]: Possible
- Dose reduction for Memory Loss: Severity [6]: Moderate
- Dose reduction for Bilateral Foot Swelling: Outcome [7]: Recovered/Resolved
- Dose reduction for Bilateral Foot Swelling: Relatedness [7]: Possible
- Dose reduction for Bilateral Foot Swelling: Severity [7]: Mild
- Dose reduction for Facial Swelling (Forehead Area): Outcome [7]: Recovered/Resolved
- Dose reduction for Facial Swelling (Forehead Area): Relatedness [7]: Possible
- Dose reduction for Facial Swelling (Forehead Area): Severity [7]: Mild
- Dose reduction for Right Hand Swelling: Outcome [7]: Recovered/Resolved
- Dose reduction for Right Hand Swelling: Relatedness [7]: Possible
- Dose reduction for Right Hand Swelling: Severity [7]: Mild
- Dose reduction for Headache: Outcome [8]: Recovered/Resolved
- Dose reduction for Headache: Relatedness [8]: Possible
- Dose reduction for Headache: Severity [8]: Mild
- Serious adverse event Post Surgical Complications: Causality [9]: Not
- Serious adverse event Post Surgical Complications: Outcome [9]: Fatal
- Serious adverse event Post Surgical Complications: Severity/Intensity [9]: Severe
- Serious adverse event Worsening Fatigue: Causality [10]: Not
- Serious adverse event Worsening Fatigue: Outcome [10]: Recovered/Resolved
- Serious adverse event Worsening Fatigue: Severity/Intensity [10]: Moderate
- Serious adverse event Coronary Atherosclerosis: Causality [11]: Not
- Serious adverse event Coronary Atherosclerosis: Outcome [11]: Recovered/Resolved
- Serious adverse event Coronary Atherosclerosis: Severity/Intensity [11]: Severe
- Serious adverse event Acute Cholecystitis: Causality [12]: Not
- Serious adverse event Acute Cholecystitis: Outcome [12]: Recovered/Resolved
- Serious adverse event Acute Cholecystitis: Severity/Intensity [12]: Moderate
- Serious adverse event Transient Ischemic Attack: Causality [13]: Not
- Serious adverse event Transient Ischemic Attack: Outcome [13]: Recovered/Resolved
- Serious adverse event Transient Ischemic Attack: Severity/Intensity [13]: Severe
- Serious adverse event Perforated Bowel: Causality [14]: Not
- Serious adverse event Perforated Bowel: Outcome [14]: Recovered/Resolved
- Serious adverse event Perforated Bowel: Severity/Intensity [14]: Severe
- Serious adverse event Abscess on Right Groin Area: Causality [15]: Not
- Serious adverse event Abscess on Right Groin Area: Outcome [15]: Recovered/Resolved
- Serious adverse event Abscess on Right Groin Area: Severity/Intensity [15]: Severe
- Serious adverse event COPD Exacerbation: Causality [16]: Not
- Serious adverse event COPD Exacerbation: Outcome [16]: Recovered/Resolved
- Serious adverse event COPD Exacerbation: Severity/Intensity [16]: Severe
- Serious adverse event Sepsis: Causality [16]: Unlikely
- Serious adverse event Sepsis: Outcome [16]: Recovered/Resolved
- Serious adverse event Sepsis: Severity/Intensity [16]: Severe
- Serious adverse event Pneumonia: Causality [17]: Not
- Serious adverse event Pneumonia: Outcome [17]: Recovered/Resolved
- Serious adverse event Pneumonia: Severity/Intensity [17]: Severe
- Serious adverse event Acute Kidney Injury Superimposed to Chronic Kidney Disease: Causality [18]: Unlikely
- Serious adverse event Acute Kidney Injury Superimposed to Chronic Kidney Disease: Outcome [18]: Not Recovered/Not
- Serious adverse event Acute Kidney Injury Superimposed to Chronic Kidney Disease: Severity/Intensity [18]: Severe
- Serious adverse event Ureterolithiasis: Causality [18]: Unlikely
- Serious adverse event Ureterolithiasis: Outcome [18]: Not Recovered/Not
- Serious adverse event Ureterolithiasis: Severity/Intensity [18]: Severe
- Serious adverse event Pneumonia: Causality [19]: Not
- Serious adverse event Pneumonia: Outcome [19]: Recovered/Resolved
- Serious adverse event Pneumonia: Severity/Intensity [19]: Severe
- Serious adverse event Dyspnea: Causality [20]: Unlikely
- Serious adverse event Dyspnea: Outcome [20]: Recovered/Resolved
- Serious adverse event Dyspnea: Severity/Intensity [20]: Severe
- Serious adverse event Stab Wound: Causality [21]: Not
- Serious adverse event Stab Wound: Outcome [21]: Fatal
- Serious adverse event Stab Wound: Severity/Intensity [21]: Severe
- Serious adverse event Dyspnea: Causality [22]: Not
- Serious adverse event Dyspnea: Outcome [22]: Not Recovered/Not
- Serious adverse event Dyspnea: Severity/Intensity [22]: Severe
- Psychiatric adverse event Abnormal dreams, % (pooled blinded data): (7.5) %
- Psychiatric adverse event Acute stress disorder, % (pooled blinded data): (0.1) %
- Psychiatric adverse event Adjustment disorder with depressed mood, % (pooled blinded data): (0.1) %
- Psychiatric adverse event Affect lability, % (pooled blinded data): (0.1) %
- Psychiatric adverse event Anhedonia, % (pooled blinded data): (0.5) %
- Psychiatric adverse event Anxiety, % (pooled blinded data): (2.5) %
- Psychiatric adverse event Attention deficit hyperactivity disorder, % (pooled blinded data): (0.1) %
- Psychiatric adverse event Bipolar disorder, % (pooled blinded data): (0.1) %
- Psychiatric adverse event Bruxism, % (pooled blinded data): (0.1) %
- Psychiatric adverse event Depressed mood, % (pooled blinded data): (0.5) %
- Psychiatric adverse event Depression, % (pooled blinded data): (2.0) %
- Psychiatric adverse event Initial insomnia, % (pooled blinded data): (0.3) %
- Psychiatric adverse event Insomnia, % (pooled blinded data): (10.2) %
- Psychiatric adverse event Irritability, % (pooled blinded data): (1.7) %
- Psychiatric adverse event Major depression, % (pooled blinded data): (0.1) %
- Psychiatric adverse event Mood swings, % (pooled blinded data): (0.1) %
- Psychiatric adverse event Nightmare, % (pooled blinded data): (1.1) %
- Psychiatric adverse event Panic attack, % (pooled blinded data): (0.3) %
- Psychiatric adverse event Paranoia, % (pooled blinded data): (0.1) %
- Psychiatric adverse event Post-traumatic stress disorder, % (pooled blinded data): (0.1) %
- Psychiatric adverse event Restlessness, % (pooled blinded data): (0.3) %
- Psychiatric adverse event Sleep disorder, % (pooled blinded data): (0.5) %
- Psychiatric adverse event Somnambulism, % (pooled blinded data): (0.1) %
- Psychiatric adverse event Stress, % (pooled blinded data): (0.1) %
- Psychiatric adverse event Suicidal ideation, % (pooled blinded data): (0.1) %
- Psychiatric adverse event Suicide attempt, % (pooled blinded data): (0.3) %
- Psychiatric disorders (any psychiatric reported adverse event), % (pooled blinded data): (22.9) %
- Abnormal lab AE related to study drug, Elevated ALT Level: Outcome of Adverse Event (start Day 29, dose not changed): Recovered/Resolved
- Abnormal lab AE related to study drug, Elevated ALT Level: Severity (start Day 29, dose not changed): Mild
- Abnormal lab AE related to study drug, Elevated AST Level: Outcome of Adverse Event (start Day 29, dose not changed): Recovered/Resolved
- Abnormal lab AE related to study drug, Elevated AST Level: Severity (start Day 29, dose not changed): Mild
- Abnormal lab AE related to study drug, Elevated Hemoglobin: Outcome of Adverse Event (start Day 85): Recovered/Resolved
- Abnormal lab AE related to study drug, Low White Blood Count: Outcome of Adverse Event (start Day 85): Not Recovered/Not
- Abnormal lab AE related to study drug, Elevated ALT: Outcome of Adverse Event (start Day 169): Not Recovered/Not
- Abnormal lab AE related to study drug, Elevated ALT: Severity (start Day 169): Moderate
- Abnormal lab AE related to study drug, Low White Blood Count: Parameter value at AE (value at screening 5.1 × 10^9/L, start Day 85): 2.5e+09 L⁻¹
- Abnormal lab AE related to study drug, Elevated ALT Level: Parameter value at AE (value at screening 25 IU/L, start Day 29, dose not changed): 195 IU/L
- Abnormal lab AE related to study drug, Elevated AST Level: Parameter value at AE (value at screening 29 IU/L, start Day 29, dose not changed): 129 IU/L
- Abnormal lab AE related to study drug, Elevated ALT: Parameter value at AE (value at screening 50 IU/L, start Day 169): 82 IU/L
- Abnormal lab AE related to study drug, Elevated Hemoglobin: Parameter value at AE (value at screening 158 g/L, start Day 85): 130 g/L
